These molecules were tested on recombinant luminescent bacteria, pLWY-fabG (in Serratia marcescens) and pLWY-sh1A (in Serratia marcescens) (assay: Luminosity (RLU) of recombinant bio-luminescent bacteria after mixing with test sample). Conditions: 200 μl bacterial liquid + 20 μl test sample, react for 15 minutes, luminosity detected for 20 sec; expressed as percentage of purified water control (100%).
Format: cell-based
Text: The technique developed in this invention that allows speedy detection of bio-inhibitory substances in wastewater is based on the principle that such substance poses a negative effect on the luminescent ability of recombinant luminescent bacteria, pLWY-fabG (in Serratia marcescens) and pLWY-sh1A (in Serratia marcescens) as provided herein. The detailed process for detecting bio-inhibitory substances in wastewater using the foregoing recombinant bio-luminescent bacteria are described below: 1. Culture the constructed foregoing recombinant bio-luminescent bacteria for 18-24 hours (O.D. >2); 2. Dilute the bacterial liquid at 1:100 with fresh LB broth the next day; 3. Shake culture at 225 rpm under 30° C. for one hour; 4. Mix 200 μl of bacterial liquid with 20 μl of test sample; mix well and let them react for 15 minutes; and 5. Use luminometer Berthold Lumat LB9507 to detect luminosity for 20 sec and the results are shown in relative light unit (RLU).
To preclude environmental error, each batch of test samples must include purified water to be treated as a positive control with RLU set as 100% for a standard reference. Given that the RLU of negative control (LB broth) is 0, it was not measured. The test results of samples are expressed as a percentage of the positive control. In this test, the amount of bacterial liquid used was 200 μl and that of test sample was 20 μl. Therefore the concentration of test sample was diluted to 1/11 of the original liquid at the time of testing. The concentrations of samples shown in the table are the detected concentration.

Compound | luminosity (RLU value) of the recombinant bio-luminescent bacterium versus concentration of the bio-inhibitory substance
CC#N [acetonitrile] | the higher is the acetonitrile concentration, the lower is the RLU value
Oc1ccccc1 [phenol] | the higher is the phenol concentration, the lower is the RLU value
[Zn+2] [zinc ion] | the higher is the zinc ion concentration, the lower is the RLU value

— patent publication US20050136445A1, “Recombinant DNA vector, recombinant bio-luminescent bacterium and method for detecting bio-inhibitory substances using same” (Industrial Technology Research Institute, priority 2003, published 2005)
